Assay results published in patent publication US11254700B2, “GSK-3β inhibitors and use thereof in methods of treatment” (UNIVERSITY OF HAWAII, priority 2017, dated 2022).

Test system: SH-SY5Y cells treated with Aβ42 oligomers
Experiment: Anti-Aβ42 neurotoxicity assay
Type: cell-based, human
Protocol: Human neuroblastoma SH-SY5Y cell line (Sigma-Aldrich, Saint Louis, Mo.) was cultured in DMEM/F12 (v/v 1:1) media supplemented with 2 mM glutamine, 10% heat-inactivated fetal bovine serum (FBS) and 1% antibiotics including penicillin and streptomycin. After reaching 70-80% confluence, cells were then subcultured on poly-L-lysine plates with 10 μM retinoic acid in a reduced serum media (1% FBS) to promote neuronal maturation and differentiation as described (Agholme, et al. (2010) J. Alzheimer's Dis. 20: 1069-1082). Cell cultures were incubated at 37° C. in a fully humidified atmosphere containing 5% CO2.
The toxic oligomers of Aβ42 were prepared as described (Liang, et al. (2016) ACS Chem. Neurosci. 7:912-923). Briefly, lyophilized Aβ42 peptide was dissolved in hexafluoroisopropanol, dried under vacuum, and stored at −20° C. Immediately prior to use, the peptide residue was reconstituted in DMEM/F12 media to make a stock solution at 0.1 mM and incubated at 4° C. for 24 hours to form diffusible oligomers. Aβ42 oligomers at a final concentration of 10 μM were assayed for cell viability.
SH-SY5Y cells were seeded at a density of 3×10^5 cells/mL in a 96-well plate in DMEM/F12 media containing 10 μM retinoic acid and 1% FBS to suppress cell proliferation. Cells were incubated under regular culture conditions for attachment. After 24 hours of plating, the cells were pretreated with different concentrations of test samples or the 0.2% DMSO as a vehicle control for 1 hour and then co-incubated with 10 μM Aβ42 for 72 hours. After the experimental treatment, the cells were subject to a […]® 96 AQueous One Solution Cell Proliferation […] Assay according to the manufacturer's instruction. […] Each data point was collected in triplicate of two independent experiments.

Compound: O=c1cc(-c2ccc(O)c(O)c2)oc2cc(O)c([C@@H]3O[C@H](CO)[C@@H](O)[C@H](O)[C@H]3O)c(O)c12 [Compound 1, isoorientin]
- EC50 (Homo sapiens, SH-SY5Y, 1 hour pretreatment, 10 μM Aβ42, 72 hours, read-out: neuroprotective potency EC50): 47 µM
- effective dose, morphological protection from Aβ42 intoxication (morphological observations): 200 μM
